Reference: US20060257484A1, “Combination of tramadol and substances that comprise gabapentin” (priority 2005, published 2006)
Structures can show the parent of a compound that is named as a salt. Where two headings read alike, the source gives them in different places.

Assays:
[1] = single oral dose 10 mg/kg tramadol HCl, 8 male Sprague-Dawley rats, cited from earlier work
[2] = steady state, cited from earlier work
[3] = Expected human pharmacokinetic parameters at 200 mg tramadol per day (model matching rat AUCinf ratio); assay type: in vivo; conditions: 200 mg tramadol per day for humans; for expected Cavg: gabapentin at 6.77 fold AUC ratio (daily dose 505 mg gabapentin equivalent)
Source text: Additional ranges can be determined for other species.

[4] = single oral dose 25 mg/kg gabapentin, 6 male Sprague-Dawley rats; cited from earlier work
[5] = higher doses increase less than expected; cited from earlier work
[6] = Expected pharmacokinetic parameters in rat after tramadol HCl plus gabapentin (model)
Source text: In another modeling approach, the dose of gabapentin for humans can be evaluated in order to match the AUCinf ratio for gabapentin to tramadol and O-demthyltramadol in rat.

Chung model = Chung model disclosed in Codd; cited from earlier work
[7] = cited from earlier work
[8] = Immediate Release Capsule, 50 mg four times daily
[9] = Modified Release Formulation, 200 mg once daily
[10] = after five days of tramadol 100 mg twice daily
[11] = single administration of 10 mg/kg tramadol HCl and 5 mg/kg gabapentin, assuming no pharmacokinetic interaction

Row | Structure (SMILES) | AUC0-24 [2, 8] [ng·h/mL] | Cmax [2, 8] [ng/mL] | Cmin [2, 8] [ng/mL] | AUC0-24 [2, 9] | Cmax [2, 9] | Cmin [2, 9] | expected Cmax [3] [ng/mL] | expected Cmin [3] [ng/mL] | expected Cavg [3] [ng/mL] | also measured
1 | CN(C)CC1CCCCC1(O)c1cccc(O)c1 (single isomer, unassigned; (+)) [(+) M1, trans-O-demethyltramadol] | 644 | 36 | 21 | 704.12 (327.09) ng * h/ml | 42 (18.4) ng/mL | 16.71 (10.41) ng/mL | 36 | 21 | 11 | AUCinf ([1]; 10 mg/kg): 16242 (2648) μg L^−1 min; Cmax ([1]; 10 mg/kg): 136 (32) μg/L; Tmax ([1]; 10 mg/kg): 34 (21) min
2 | NCC1(CC(=O)O)CCCCC1 [Gabapentin, gabapentin] | – | – | – | – | – | – | – | – | 1890 | AUCinf [4]: 32800 ng·h/mL; Cmax [4]: 6850 ng/mL; Tmax [4]: 108 min; dose up to which serum concentrations increase linearly [5]: up to 1800 mg/d; AUCinf for gabapentin relative to that for (±) tramadol and (±) O-demthyltramadol ([6]; Chung model (rat)): 6.77 fold; ED50 (Chung model): 439.50 mg/kg
3 | COc1cccc(C2(O)CCCCC2CN(C)C)c1 (racemic) [tramadol] | – | – | – | – | – | – | – | – | – | AUC0-12 at steady state [7, 10]: 2970 ng·h/mL; Cmax at steady state [7, 10]: 414 ng/mL; Cmax and AUCinf versus dose ([7]; tramadol 400 mg given): proportional to the dose
4 | COc1cccc(C2(O)CCCCC2CN(C)C)c1 (stereo not shown) [tramadol HCl] | – | – | – | – | – | – | – | – | – | ED50 (Chung model): 94.47 mg/kg
5 | COc1cccc(C2(O)CCCCC2CN(C)C)c1 (single isomer, unassigned; (-)) [(−)-trans-T] | 2719 | 157 | 86 | 3005 (1120) ng * h/ml | 199 (75) ng/mL | 62 (30) ng/mL | 157 | 86 | 113 | AUCinf [1]: 5257 µg·min/L; Cmax [1]: 74 µg/L; Tmax [1]: 22 min
6 | CN(C)CC1CCCCC1(O)c1cccc(O)c1 (racemic) [(±) M1, trans-O-demethyltramadol] | – | – | – | – | – | – | – | – | – | expected AUCinf [6, 11]: 523 ng·h/mL; expected Cmax [6, 11]: 331 ng/mL
7 | CN(C)CC1CCCCC1(O)c1cccc(O)c1 (single isomer, unassigned; (-)) [(−) M1, trans-O-demethyltramadol] | 690 | 43 | 22 | 745 (286) ng * h/ml | 46 (18) ng/mL | 16 (8) ng/mL | 43 | 22 | 12 | AUCinf ([1]; 10 mg/kg): 21178 (1987) μg L^−1 min; Cmax ([1]; 10 mg/kg): 195 (63) μg/L; Tmax ([1]; 10 mg/kg): 41 (24) min
8 | COc1cccc([C@@]2(O)CCCC[C@@H]2CN(C)C)c1 [(+)-trans-T] | 3429 | 190 | 111 | 3763 (1275) ng * h/ml | 239 (81) ng/mL | 81 (36) ng/mL | 190 | 111 | 143 | AUCinf [1]: 21501 µg·min/L; Cmax [1]: 193 µg/L; Tmax [1]: 22 min
